This is an account of results in patent publication US10047051B2, “Substituted pyridines and method of use” (AbbVie S.á{acute over (.)}r.l., priority 2015, dated 2018).

The target of one assay is T1, CFTR ΔF508 mutant (Homo sapiens, UniProt P13569, DEL508-508).
T1 construct: expressed in transfected cells; host or cells: CFBE41o- cells, adenoviral transduction
The experiment in a line: YFP-halide influx assay for the CFTR-ΔF508 mutation (CFBE41o- cells). In kind it is cell-based. The following applies: forskolin 10.67 μM; for EC50: from (1−F/F0) vs concentration plot. In outline: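 EC50 derived from plotting 1−F/F0 (fluorescence 36 s after iodide injection over pre-injection value) against compound concentration. Cells: CFBE41o- transduced with ΔF508-CFTR and YFP quench reporter, corrected 24 h at 27° C or by a CFTR modulator at 37° C.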

For a further assay, the target named is T2, CFTR G551D mutant (Homo sapiens, UniProt P13569, G551D).
T2 construct: expressed in transfected cells; host or cells: HEK293 cells, reverse transfection with plasmids
The assay is described as follows: YFP-halide influx assay for the CFTR-G551D mutation (HEK293 cells). In kind it is cell-based. The following applies: forskolin 10.67 μM. In short, it runs like this:
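Channel opening read as I⁻-driven quenching of a YFP H148Q/I152L/F47L reporter over 7 s post-injection, expressed as 1−F/F0 and fitted against concentration for EC50. Cells were HEK293 co-transfected at seeding with G551D CFTR plus reporter, then grown 24 h at 37 °C, 5% CO2.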

T1 sequence (P13569 with tags, fused parts or gaps DEL508-508): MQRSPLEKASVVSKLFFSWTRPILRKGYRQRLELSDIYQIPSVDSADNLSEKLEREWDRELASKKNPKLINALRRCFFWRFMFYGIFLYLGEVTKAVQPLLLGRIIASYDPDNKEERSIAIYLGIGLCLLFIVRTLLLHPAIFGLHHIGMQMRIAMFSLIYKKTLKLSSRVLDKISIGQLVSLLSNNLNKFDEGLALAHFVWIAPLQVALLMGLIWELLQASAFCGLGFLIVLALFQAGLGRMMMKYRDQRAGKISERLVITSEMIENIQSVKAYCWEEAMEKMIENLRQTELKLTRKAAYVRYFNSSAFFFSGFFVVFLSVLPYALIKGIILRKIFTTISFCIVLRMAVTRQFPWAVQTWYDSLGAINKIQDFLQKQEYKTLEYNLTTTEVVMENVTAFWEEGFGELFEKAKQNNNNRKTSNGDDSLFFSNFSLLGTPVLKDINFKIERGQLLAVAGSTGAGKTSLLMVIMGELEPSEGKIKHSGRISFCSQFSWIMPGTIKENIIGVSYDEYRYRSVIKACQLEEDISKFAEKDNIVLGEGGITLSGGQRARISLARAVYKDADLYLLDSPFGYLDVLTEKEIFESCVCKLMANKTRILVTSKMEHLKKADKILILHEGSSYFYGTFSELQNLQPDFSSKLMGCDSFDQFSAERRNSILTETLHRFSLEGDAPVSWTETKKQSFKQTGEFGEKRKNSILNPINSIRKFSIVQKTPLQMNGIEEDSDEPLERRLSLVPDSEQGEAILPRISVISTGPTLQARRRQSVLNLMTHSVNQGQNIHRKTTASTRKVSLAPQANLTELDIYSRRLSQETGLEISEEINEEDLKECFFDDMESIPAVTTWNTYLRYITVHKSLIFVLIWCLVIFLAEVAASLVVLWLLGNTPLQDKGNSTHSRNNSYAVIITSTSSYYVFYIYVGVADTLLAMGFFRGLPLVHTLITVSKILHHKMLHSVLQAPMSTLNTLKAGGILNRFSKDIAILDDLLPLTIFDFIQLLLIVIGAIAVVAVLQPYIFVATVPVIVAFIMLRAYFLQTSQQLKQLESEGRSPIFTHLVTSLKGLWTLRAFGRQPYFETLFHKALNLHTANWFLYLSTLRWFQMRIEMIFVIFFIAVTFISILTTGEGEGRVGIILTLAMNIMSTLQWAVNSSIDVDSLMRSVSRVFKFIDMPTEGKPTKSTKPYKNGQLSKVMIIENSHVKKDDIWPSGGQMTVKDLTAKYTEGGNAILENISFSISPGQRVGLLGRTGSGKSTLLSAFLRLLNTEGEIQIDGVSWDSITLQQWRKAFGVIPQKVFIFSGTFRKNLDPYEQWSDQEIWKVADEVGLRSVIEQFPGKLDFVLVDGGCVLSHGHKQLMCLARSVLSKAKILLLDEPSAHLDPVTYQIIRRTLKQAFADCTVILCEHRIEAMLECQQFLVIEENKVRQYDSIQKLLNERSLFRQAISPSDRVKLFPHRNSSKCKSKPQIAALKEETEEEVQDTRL
T2 sequence (P13569 whole entry G551D): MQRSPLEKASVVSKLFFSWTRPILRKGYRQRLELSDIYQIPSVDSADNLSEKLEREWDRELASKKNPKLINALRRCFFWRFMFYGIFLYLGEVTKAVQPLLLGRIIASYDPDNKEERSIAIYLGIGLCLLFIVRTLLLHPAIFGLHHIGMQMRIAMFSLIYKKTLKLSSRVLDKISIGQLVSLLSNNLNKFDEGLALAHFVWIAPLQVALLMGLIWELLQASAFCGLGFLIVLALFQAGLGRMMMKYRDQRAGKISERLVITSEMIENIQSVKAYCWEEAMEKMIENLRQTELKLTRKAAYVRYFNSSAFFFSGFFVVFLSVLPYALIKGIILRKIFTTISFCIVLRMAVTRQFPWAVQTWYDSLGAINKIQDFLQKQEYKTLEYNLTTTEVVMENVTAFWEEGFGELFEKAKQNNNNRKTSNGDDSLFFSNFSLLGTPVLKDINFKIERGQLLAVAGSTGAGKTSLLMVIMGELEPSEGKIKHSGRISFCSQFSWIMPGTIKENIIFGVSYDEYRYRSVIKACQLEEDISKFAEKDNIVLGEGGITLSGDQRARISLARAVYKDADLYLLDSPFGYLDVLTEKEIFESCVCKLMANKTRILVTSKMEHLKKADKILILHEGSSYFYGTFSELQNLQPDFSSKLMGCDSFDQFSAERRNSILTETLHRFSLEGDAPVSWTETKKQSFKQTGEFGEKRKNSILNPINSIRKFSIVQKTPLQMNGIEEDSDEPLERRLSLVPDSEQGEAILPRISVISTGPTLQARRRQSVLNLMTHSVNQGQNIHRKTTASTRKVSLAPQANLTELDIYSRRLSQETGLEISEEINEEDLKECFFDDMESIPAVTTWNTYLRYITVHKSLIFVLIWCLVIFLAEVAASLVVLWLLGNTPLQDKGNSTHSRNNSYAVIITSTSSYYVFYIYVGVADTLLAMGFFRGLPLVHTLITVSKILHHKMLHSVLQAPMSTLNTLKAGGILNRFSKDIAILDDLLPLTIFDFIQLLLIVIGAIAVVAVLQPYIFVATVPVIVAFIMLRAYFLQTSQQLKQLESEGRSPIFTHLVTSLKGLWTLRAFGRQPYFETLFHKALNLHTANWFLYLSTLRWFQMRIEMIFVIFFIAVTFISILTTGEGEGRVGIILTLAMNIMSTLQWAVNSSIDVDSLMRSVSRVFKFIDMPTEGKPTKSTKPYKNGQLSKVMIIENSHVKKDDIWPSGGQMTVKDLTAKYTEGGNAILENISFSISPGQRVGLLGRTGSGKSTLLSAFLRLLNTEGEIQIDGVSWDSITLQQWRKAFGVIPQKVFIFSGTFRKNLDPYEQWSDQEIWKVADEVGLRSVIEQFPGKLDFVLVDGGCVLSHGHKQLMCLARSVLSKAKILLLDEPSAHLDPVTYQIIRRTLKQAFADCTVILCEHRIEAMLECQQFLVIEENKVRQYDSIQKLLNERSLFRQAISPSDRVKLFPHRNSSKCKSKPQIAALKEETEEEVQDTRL

`Nc1cc(S(=O)(=O)c2ccc(C(F)(F)F)cc2F)cnc1C(=O)N1CC(OC(F)F)C1` [Compound 161, (3-amino-5-{[2-fluoro-4-(trifluoromethyl)phenyl]sulfonyl}pyridin-2-yl)[3-(difluoromethoxy)azetidin-1-yl]methanone]: the “% Activation” value was 97.3% on CFTR ΔF508 mutant and 45.8% at CFTR G551D mutant. For the same compound, the half-maximal effective concentration (EC50) at CFTR ΔF508 mutant amounted to 21.5 nM; at CFTR G551D mutant, 681 nM.
On the same counts, the results for `Nc1cc(S(=O)(=O)c2ccc(C(F)(F)F)cc2F)cnc1C(=O)NC[C@@H]1CCOC1` [Compound 114, 3-amino-5-{[2-fluoro-4-(trifluoromethyl)phenyl]sulfonyl}-N-[(3S)-tetrahydrofuran-3-ylmethyl]pyridine-2-carboxamide] are 109.3%, 37.9%, 19.1 nM and more than 10000 nM.
As to `CC(C)CC(O)CNC(=O)c1ncc(S(=O)(=O)c2ccc(OC(F)(F)F)cc2)cc1N` (stereo not drawn) [Compound 87, 3-amino-N-(2-hydroxy-4-methylpentyl)-5-{[4-(trifluoromethoxy)phenyl]sulfonyl}pyridine-2-carboxamide], at CFTR ΔF508 mutant, the “% Activation” value is recorded as 102.0% and a half-maximal effect (EC50) was put at 11.9 nM. Besides, at CFTR G551D mutant, the “% Activation” value is listed as 67.5% and the EC50 turned out to be 997 nM.
Regarding `Nc1cc(S(=O)(=O)c2ccc(OC(F)(F)F)cc2F)cnc1C(=O)NC[C@H]1CCOC1` [Compound 115, 3-amino-5-{[2-fluoro-4-(trifluoromethoxy)phenyl]sulfonyl}-N-[(3R)-tetrahydrofuran-3-ylmethyl]pyridine-2-carboxamide], at CFTR ΔF508 mutant, the “% Activation” value amounted to 102.3% and the EC50 is 34.9 nM. Further, on CFTR G551D mutant, the “% Activation” value is reported as 40.6% and the half-maximal effective concentration (EC50) was determined as 900 nM.
For `Nc1cc(S(=O)(=O)c2ccc(OC(F)(F)F)cc2)cnc1C(=O)NC1COC1` [Compound 151, 3-amino-N-(oxetan-3-yl)-5-{[4-(trifluoromethoxy)phenyl]sulfonyl}pyridine-2-carboxamide] the same measures were 16.9%, more than 1000 nM, 3.0% and more than 5000 nM.
On the same counts, the results for `Nc1cc(S(=O)(=O)c2ccc(C(F)(F)F)cc2F)cnc1C(=O)N1CC(F)(F)C1` [Compound 164, (3-amino-5-{[2-fluoro-4-(trifluoromethyl)phenyl]sulfonyl}pyridin-2-yl)(3,3-difluoroazetidin-1-yl)methanone] are 102.0%, 8.2 nM, 71.5% and 683 nM.
As for `Nc1cc(S(=O)(=O)c2ccccc2)cnc1C(=O)NCC(O)C(F)(F)F` (stereo not drawn) [Compound 244, 3-amino-5-(phenylsulfonyl)-N-(3,3,3-trifluoro-2-hydroxypropyl)pyridine-2-carboxamide], on CFTR ΔF508 mutant, the “% Activation” value turned out to be 102.5% and the EC50 stood at 8.5 nM. On CFTR G551D mutant, the “% Activation” value was 65.9% and the EC50 was 564 nM.
For `CC(C)[C@@H](CO)NC(=O)c1ncc(S(=O)(=O)c2ccc(OC(F)(F)F)cc2)cc1N` [Compound 148, 3-amino-N-[(2S)-1-hydroxy-3-methylbutan-2-yl]-5-{[4-(trifluoromethoxy)phenyl]sulfonyl}pyridine-2-carboxamide] the same measures were 88.8%, 42.5 nM, 60.2% and 510 nM.
`Nc1cc(S(=O)(=O)c2ccc(OC(F)(F)F)cc2)cnc1C(=O)N1CC2(CCOC2)C1` [Compound 125, (3-amino-5-{[4-(trifluoromethoxy)phenyl]sulfonyl}pyridin-2-yl)(6-oxa-2-azaspiro[3.4]oct-2-yl)methanone]: at CFTR ΔF508 mutant, the “% Activation” value was found to be 114.0% and a half-maximal effect (EC50) was put at 65.6 nM. Moreover, at CFTR G551D mutant, the “% Activation” value stood at 84.1% and the concentration giving a half-maximal response (EC50) amounted to 2210 nM.
